The numbers were not newly measured in patent US20180353602A1, “COMBINATION OF HDAC INHIBITOR AND ANTI-PD-L1 ANTIBODY FOR TREATMENT OF CANCER” (Syndax Pharmaceuticals, Inc., priority 2015, published 2018), which cites them from elsewhere.

Like-named read-outs stand apart in the source and are kept apart here.

The conditions of series [1]: in vivo.
The subject of series [2] is squamous or non-squamous non small cell lung cancer (NSCLC). The note with it: ≤1, 10, 15, and 25 mg/kg every 3 weeks for up to 1 year.

As to `Nc1ccccc1NC(=O)c1ccc(CNC(=O)OCc2cccnc2)cc1` [Entinostat, N-(2-aminophenyl)-4-[N-(pyridine-3-yl)methoxycarbonylamino-methyl]-benzamide], the half-life entry in series [1] was “about 100 hours”.

With “MPDL3280A: human anti-PD-L1 mAb directed against the protein ligand PD-L1, with an engineered Fc domain minimizing ADCC”, the “24-week progression free survival (PFS) rate” value is listed as 46% in series [2] (non-squamous cell NSCLC patients) and 44% in series [2] (squamous cell NSCLC patients).
